In patent US11905268B2, “Anthranilic acid derivatives and their use in the treatment of human cancers” (UNIVERSITY OF CENTRAL FLORIDA RESEARCH FOUNDATION, INC., priority 2018, dated 2024):
Read-outs that look alike come from different tables or passages of the source.

Assays:
L3.6pl cells = test: cells; type: cell-based; conditions: for IC50: Homo sapiens, L3.6pl; for L3.6pl MTC: maximum tolerated concentration where cells are >90% viable
[1] = test system: DFMO treated Chinese hamster ovary (CHO) cells; test: DFMO/spermidine rescue assay in CHO cells (Assay 2); type: cell-based
Procedure: In the reconfirmation assay compounds were run in quadruplicate. […] A PTI compound is expected to block the entry or disrupt the intracellular trafficking of spermidine and inhibit the ability of spermidine to rescue the growth or viability of DFMO treated cells.
DFMO/Spermidine assay Here cells were treated with an inhibitor of polyamine biosynthesis (DFMO) and rescued back to high viability by the presence of exogenous polyamine (spermidine). Putative PTI compounds were screened for their ability to block the entry or intracellular trafficking of exogenous spermidine (or otherwise disrupt the intracellular trafficking of spermidine) by measuring cell viability in the presence of DFMO+spermidine+PTI compound. […] This was followed by adding 10 μL of […] and 5 μM spermidine (FAC 5 mM DFMO and 1 μM spermidine) in assay medium with a Beckman BioRAPTR FRD dispenser or 10 μL of 5 mM DFMO added in assay medium (positive control). […] A PTI compound is expected to block the entry or disrupt the intracellular trafficking of spermidine and inhibit the ability of spermidine to rescue the growth or viability of DFMO treated cells Cytotoxicity

CHO cells [2] = test: Cytotoxicity screen in CHO cells; conditions: for IC50 at 48 h: Chinese hamster, CHO K1 cells; for tox (DFMO Assay) / Tox (Ant44): toxic above the stated concentration, CHO cells; for tox (DFMO Assay): listed with DFMO assay; for Tox (Ant44): listed with Ant44 assay
Procedure: CHO K1 cells were grown in growth medium to 70% confluency and washed in PBS and trypsinized. […] Cells were spun at 100×g for 1 minute and incubated at 37° C. in a humidified CO2 incubator for 24 hours. […] Cellular ATP content was then assayed by adding 3 uL of ATPLite with a Beckman BioRAPTR FRD dispenser and incubated for 10 minutes at room temperature. Plates were spun at 200×g for 1 minute and read on a Perkin Elmer Viewlux multimode plate reader using luminescence mode. This assay was used for testing dose-response of dry powders.
CHO K1 cells were grown in growth medium to 70% confluency and washed in PBS and trypsinized. Cells were plated in assay medium at 10000 cells/mL for 200 cells per well using a Thermo Multidrop Combi in 20 uL into a white Greiner plate. Cells were spun at 100×g for 1 minute and incubated at 37° C. in a humidified CO2 incubator for 24 hours. […] This was followed by adding by 10 μL of assay medium to all wells with a Beckman BioRAPTR FRD dispenser. The plates were spun at 200×g for 1 minute and incubated at 37° C. in a humidified 5% CO2 incubator for 48 hours. Cellular ATP content was then assayed by adding 20 μL of ATPLite with a Beckman BioRAPTR FRD dispenser and incubated for 10 min at room temperature. Plates were spun at 200×g for 1 minute and read on a Perkin Elmer Envision for multimode plate reader using luminescence mode. Duplicates were run for each compound concentration, and the curves represent the average of the duplicates as percent viability.
The final compound concentration was either 20 μM or 10 μg/mL (depending upon the compound source). A successful PTI in Assay 1 would block the uptake of the toxic Ant44 probe and rescue the cells back to >90% relative growth vs an untreated control. It was critical to also evaluate the toxicity of the PTI by itself as a toxic PTI would give a false negative in Assay1 (and a false positive in Assay 2). […] Assay 2 then evaluated the ability of the compound to inhibit the uptake of a rescuing dose of Spermidine (Spd, 1 μM) into DFMO-treated CHO cells.

CHO cells [3] = test: Ant44 rescue assay in CHO cells (Assay 1); type: cell-based, Chinese hamster; conditions: for IC50 / EC50: Cricetulus griseus
Procedure: CHO K1 cells were grown in growth medium (RPMI+10% FBS+1×P/S+1% l-glutamine) to 70% confluency, washed in PBS and trypsinized. Cells were plated in assay medium (serum free RPMI+2% FBS+1×l-glutamine+1×P/S+[…] aminoguanidine) at 50000 cells/mL for 200 cells per well in 4 ul using a Thermo Multidrop Combi into a 1536-well white Aurora plate.
Ant44 is a cytotoxic polyamine, i.e., N^1-(9-anthracenyl)-homospermidine. A non-toxic PTI compound would block entry or intracellular trafficking of the Ant44 toxin and rescue the cells back to high viability. Therefore, this screen tested for compounds which rescued cells from Ant44 toxicity. […] This was followed by adding 10 uL of 10 uM Ant44 (FAC 2 uM) in assay medium with a Beckman BioRAPTR FRD dispenser or 10 uL of cells added in assay medium (positive control).

[4] = relative growth after 72 h, read-out: L3.6pl IC50
[5] = Cricetulus griseus, CHO, Table 7, read-out: SAR IC50 DFMO assay
[6] = CHO, Table 7, read-out: SAR IC50 Ant44 assay
[7] = Cricetulus griseus, Table 1 HTS top hits, CHO cells, read-out: DFMO Assay IC50
[8] = Table 1 HTS top hits, CHO cells, read-out: Ant44 EC50
[9] = read-out: IC50 values (toxicity profile)
[10] = Table 1 HTS top hits, CHO cells

COc1ccc(C(=O)Nc2ccc(N3CCN(c4cc(Cl)ccc4C)CC3)cc2C(=O)O)cc1 [SBI-0754479, 5-(4-(5-chloro-2-methylphenyl)piperazin-1-yl)-2-(4-methoxybenzamido)benzoic acid]
IC50 (L3.6pl cells; [4]): 16.8 ± 0.1 µM
L3.6pl MTC (L3.6pl cells): 8 µM
IC50 [1, 5]: 8 µM
IC50 at 48 h (CHO cells [2]): 13 µM
IC50 (CHO cells [3]; [6]): > 40 µM

CCOC(=O)N1CCN(c2ccc(NC(=O)c3ccc(OC)cc3)c(C(=O)O)c2)CC1 [SBI-0800692]
IC50 [1, 5]: > 40 µM
IC50 [1, 7]: ~20 µM
IC50 at 48 h (CHO cells [2]): 34 µM
tox (DFMO Assay) (CHO cells [2]): SBI- 0800692.0001 (IC50 ~20, tox >20) μM
IC50 (CHO cells [3]; [6]): > 40 µM
Ant44 EC40 (CHO cells [3]; Table 1, CHO cells): SBI- 0800692.0001 (EC40 at 31) μM

COc1ccccc1C(=O)Nc1ccc(N2CCN(c3cccc(C)c3C)CC2)cc1C(=O)O [SBI-0800676]
IC50 [1, 5]: 23 µM
IC50 [1, 7]: ~15 µM
IC50 at 48 h (CHO cells [2]): 28 µM
Tox (Ant44) (CHO cells [2]): SBI- 0800676.0001 (20 EC50) Tox >20 μM
tox (DFMO Assay) (CHO cells [2]): SBI- 0800676.0001 (IC50 ~15, tox >15) μM
IC50 (CHO cells [3]; [6]): 2 µM
EC50 (CHO cells [3]; [8]): 20 µM

COc1ccccc1C(=O)Nc1ccc(N2CCN(C(=O)c3ccccn3)CC2)cc1C(=O)O [SBI-0814424, 2-(2-methoxybenzamido)-5-(4-picolinoylpiperazin-1-yl)benzoic acid]
IC50 [1, 5]: > 40 µM
IC50 at 48 h (CHO cells [2]): > 40 µM
IC50 (CHO cells [3]; [6]): > 40 µM

COc1ccccc1C(=O)Nc1ccc(N2CCN(c3ccccn3)CC2)cc1 [SBI-0814417, 2-methoxy-N-(4-(4-(pyridin-2-yl)piperazin-1-yl)phenyl)benzamide]
IC50 [1, 5]: > 40 µM
IC50 at 48 h (CHO cells [2]): 14 µM
IC50 (CHO cells [3]; [6]): > 40 µM

COC(=O)c1cc(N2CCN(c3cc(Cl)ccc3C)CC2)ccc1NC(=O)c1ccc(OC)cc1OC [SBI-0801723, methyl 5-(4-(5-chloro-2-methylphenyl)piperazin-1-yl)-2-(2,4-dimethoxybenzamido)benzoate]
IC50 [1, 5]: > 40 µM
IC50 at 48 h (CHO cells [2]): > 40 µM
IC50 (CHO cells [3]; [6]): > 40 µM

COc1ccccc1C(=O)Nc1ccc(N2CCN(c3ccccc3OC)CC2)cc1C(=O)O [ChemDiv F687-0882]
IC50 (L3.6pl cells; [9]): > 38 µM
IC50 (L3.6pl cells; [4]): > 50 µM
L3.6pl MTC (L3.6pl cells): 9 µM

COc1ccc(C(=O)Nc2ccc(N3CCCN(c4ncccn4)CC3)cc2C(=O)O)cc1 [SBI-0800691]
IC50 [1, 5]: > 40 µM
DFMO Assay IC50 [1, 10]: No effect
Active in DFMO assay? ([1]; Table 3, in CHO): No in CHO
DFMO/CHO IC50 ([1]; Table 5B): trace
IC50 at 48 h (CHO cells [2]): > 40 µM
MTD CHO (CHO cells [2]; hamster): >32 µM
Tox (Ant44) (CHO cells [2]): No tox
tox (DFMO Assay) (CHO cells [2]): No tox
activity in Ant44 assay (CHO cells [3]; CHO cells): robust Ant44 uptake inhibition activity
EC50 (CHO cells [3]; CHO, Table 3, read-out: Ant44 rescue EC50 CHO): ~11 µM
IC50 (CHO cells [3]; [6]): 12 µM
EC50 (CHO cells [3]; [8]): 10 to 15 µM
IC50 (CHO cells [3]; Table 5B, CHO cells, read-out: Ant44 IC50): 12 µM

COc1ccccc1C(=O)Nc1ccc(CN2CCN(c3ccccn3)CC2)cc1C(=O)O [SBI-0814423, 2-(2-Methoxybenzamido)-5-((4-(pyridin-2-yl)piperazin-1-yl)methyl)benzoic acid]
IC50 [1, 5]: > 40 µM
IC50 at 48 h (CHO cells [2]): > 40 µM
IC50 (CHO cells [3]; [6]): > 40 µM

COc1ccc(CC(=O)Nc2ccc(N3CCN(c4cc(Cl)ccc4C)CC3)cc2C(=O)O)cc1 [SBI-0754480]
IC50 [1, 7]: 5 to 10 µM
IC50 at 48 h (CHO cells [2]): 24 µM
tox (DFMO Assay) (CHO cells [2]): > 20 µM
IC50 (CHO cells [3]; [6]): 32 µM
EC50 (CHO cells [3]; [8]): 31 µM

CCN(CC)C(=O)CN1CCN(c2ccc(NC(=O)c3ccc(OC)cc3)c(C(=O)O)c2)CC1 [SBI-0800690]
IC50 [1, 5]: > 40 µM
IC50 [1, 7]: ~20 µM
IC50 at 48 h (CHO cells [2]): 28 µM
tox (DFMO Assay) (CHO cells [2]): SBI- 0800690.0001 (IC50 ~20, tox >20) μM
IC50 (CHO cells [3]; [6]): > 40 µM
Ant44 EC50 (CHO cells [3]; [10]): SBI- 0800690.0001 No effect

COc1ccccc1C(=O)Nc1ccc(N2CCN(CCc3ccccc3)CC2)cc1C(=O)O [SBI-0814415, 2-(2-methoxybenzamido)-5-(4-phenethylpiperazin-1-yl)benzoic acid]
IC50 [1, 5]: > 40 µM
IC50 at 48 h (CHO cells [2]): > 40 µM
IC50 (CHO cells [3]; [6]): > 40 µM

Cc1ccc(CC(=O)Nc2ccc(N3CCN(c4ccccc4Cl)CC3)cc2C(=O)O)cc1 [SBI-0800675]
IC50 [1, 5]: 32 µM
IC50 [1, 7]: > 25 µM
IC50 at 48 h (CHO cells [2]): > 40 µM
Tox (Ant44) (CHO cells [2]): SBI- 0800675.0001 (31 EC50) Tox >31 μM
tox (DFMO Assay) (CHO cells [2]): no tox
IC50 (CHO cells [3]; [6]): 16 µM
EC50 (CHO cells [3]; [8]): 31 µM

COC(=O)c1cc(N2CCN(c3cc(Cl)ccc3C)CC2)ccc1NC(=O)c1ccccc1OC [SBI-0801724, methyl 5-(4-(5-chloro-2-methylphenyl)piperazin-1-yl)-2-(2-methoxybenzamido)benzoate]
IC50 [1, 5]: > 40 µM
IC50 at 48 h (CHO cells [2]): > 40 µM
IC50 (CHO cells [3]; [6]): > 40 µM

COc1ccccc1N1CCN(c2ccc(NC(=O)c3cccs3)cc2C(=O)O)CC1 [SBI-0800666]
IC50 [1, 5]: 27 µM
IC50 [1, 7]: 20 to 32 µM
IC50 at 48 h (CHO cells [2]): > 40 µM
IC50 (CHO cells [3]; [6]): > 40 µM
Ant44 EC50 (CHO cells [3]; [10]): SBI- 0800666.0001 No effect

COC(=O)c1cc(CN2CCN(c3ccccn3)CC2)ccc1NC(=O)c1ccccc1OC [SBI-0814422, Methyl 2-(2-methoxybenzamido)-5-((4-(pyridin-2-yl)piperazin-1-yl)methyl)benzoate]
IC50 [1, 5]: > 20 µM
IC50 at 48 h (CHO cells [2]): > 20 µM
IC50 (CHO cells [3]; [6]): > 20 µM

CCOc1ccccc1N1CCN(c2ccc(NC(=O)c3ccc(OC)cc3)c(C(=O)O)c2)CC1 [SBI-0800683]
EC50 ([1]; Cricetulus griseus, CHO, Table 2): ~20 µM
IC50 ([1]; Cricetulus griseus, CHO, Table 4B, read-out: DFMO/CHO IC50): 20 µM
IC50 [1, 5]: 20 µM
IC50 [1, 7]: ~20 µM
IC50 at 48 h (CHO cells [2]): 37 µM
CHO MTD (CHO cells [2]; hamster): 20 µM
CHO MTD EC50 (CHO cells [2]; hamster): (37) μM
Tox (Ant44) (CHO cells [2]): SBI- 0800683.0001 (20 μM EC50) Tox >20 μM
tox (DFMO Assay) (CHO cells [2]): SBI- 0800683.0001 (IC50 ~20 μM, tox >20 μM)
EC50 (CHO cells [3]; CHO, Table 2, Active in Ant44 assay?, read-out: Ant44 assay EC50 in CHO): ~20 µM
IC50 (CHO cells [3]; [6]): > 40 µM
EC50 (CHO cells [3]; [8]): 20 µM
Active in Ant44 assay? (CHO cells [3]; Table 2, in CHO): Yes
Ant44 IC50 (CHO cells [3]; Table 4B, CHO cells): trace

COc1ccccc1C(=O)Nc1ccc(N2CCN(c3ccccc3)CC2)cc1C(=O)O [ChemDiv F687-0884]
IC50 (L3.6pl cells; [9]): > 38 µM
IC50 (L3.6pl cells; [4]): 46.3 ± 0.02 µM
L3.6pl MTC (L3.6pl cells): 9 µM
